Measured values taken from ChEMBL document CHEMBL2331407, “Mexican antidiabetic herbs: valuable sources of inhibitors of α-glucosidases” (J Nat Prod, 2013).
Values after ≈ are worked out from the molar mass of the structure shown.

Assays:
[1] = target: T1, Alpha-glucosidase MAL12 (Saccharomyces cerevisiae S288c, UniProt P53341); assay: (§1) Inhibition of baker's yeast alpha-glucosidase
[2] = target: alpha-glucosidase (Mus musculus); assay: Inhibition of alpha-glucosidase from mouse intestine crude homogenate
[3] = system: alpha-glucosidase (Rattus norvegicus); assay: Inhibition of rat intestinal alpha-glucosidase; design: concentration or dose not given beside the values; settings: concentration not given here
[4] = species: Rattus norvegicus; assay: Gastroprotective activity in rat assessed as protection against ethanol-induced gastric injury; type: functional, Stomach; settings: for ED50: Rattus norvegicus, Stomach
[5] = target: Oligo-1,6-glucosidase IMA1 (Saccharomyces cerevisiae S288c) (UniProt P53051); assay: as §1
Oligo-1,6-glucosidase IMA1 (Saccharomyces cerevisiae S288c), sequence (P53051 whole entry): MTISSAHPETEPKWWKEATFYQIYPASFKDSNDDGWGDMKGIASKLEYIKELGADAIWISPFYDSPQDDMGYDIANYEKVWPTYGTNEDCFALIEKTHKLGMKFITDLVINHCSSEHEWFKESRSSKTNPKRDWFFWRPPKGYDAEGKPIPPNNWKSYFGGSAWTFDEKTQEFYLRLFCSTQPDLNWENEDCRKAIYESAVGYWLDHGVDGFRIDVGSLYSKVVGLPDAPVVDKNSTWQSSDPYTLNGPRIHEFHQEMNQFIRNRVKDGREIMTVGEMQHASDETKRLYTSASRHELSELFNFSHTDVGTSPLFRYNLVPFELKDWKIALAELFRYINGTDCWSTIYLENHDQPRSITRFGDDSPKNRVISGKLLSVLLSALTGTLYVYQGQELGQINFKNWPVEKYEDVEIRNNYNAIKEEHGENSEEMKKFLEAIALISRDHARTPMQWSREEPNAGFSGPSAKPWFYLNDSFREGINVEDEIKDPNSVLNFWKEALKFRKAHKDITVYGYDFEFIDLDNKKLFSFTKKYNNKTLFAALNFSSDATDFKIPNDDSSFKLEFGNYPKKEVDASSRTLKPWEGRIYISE

[6] = Inhibition of rat intestinal alpha-glucosidase
[7] = target: T1, Alpha-glucosidase MAL12; assay: Mixed type inhibition of baker's yeast alpha-glucosidase by Dixon plot analysis

T1 sequence (P53341 whole entry): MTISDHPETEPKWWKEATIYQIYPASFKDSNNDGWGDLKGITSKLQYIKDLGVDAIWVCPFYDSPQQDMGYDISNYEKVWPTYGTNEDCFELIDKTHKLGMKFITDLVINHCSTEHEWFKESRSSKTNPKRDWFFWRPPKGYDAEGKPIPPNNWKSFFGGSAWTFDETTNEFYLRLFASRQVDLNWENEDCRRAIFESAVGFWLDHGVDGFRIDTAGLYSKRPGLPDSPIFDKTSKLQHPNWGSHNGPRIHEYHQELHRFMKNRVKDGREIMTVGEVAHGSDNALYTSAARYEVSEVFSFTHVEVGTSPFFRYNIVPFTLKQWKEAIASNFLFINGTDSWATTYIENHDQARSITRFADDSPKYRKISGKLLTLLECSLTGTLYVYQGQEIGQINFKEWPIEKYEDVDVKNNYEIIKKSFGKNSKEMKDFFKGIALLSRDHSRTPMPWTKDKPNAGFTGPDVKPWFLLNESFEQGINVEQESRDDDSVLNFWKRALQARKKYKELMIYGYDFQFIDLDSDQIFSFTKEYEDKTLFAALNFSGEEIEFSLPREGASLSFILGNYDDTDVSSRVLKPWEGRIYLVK

| IC50 [1] [µM] | inhibition [3] [%] | Structure (SMILES) | also measured |
| --- | --- | --- | --- |
| – | – | CC(C)=CC(=O)O[C@H]1C[C@@H](O)[C@@]2(C)CO[C@H]3[C@@H](O)[C@@]4(C)C5=CC[C@@H](c6ccoc6)[C@]5(C)CC[C@@H]4[C@]1(C)[C@@H]32 [MELIACINOLIN] | IC50 [2]: 32.18 µg/mL (≈ 63 µM) |
| – | 11.5 | COC(C)(C)/C=C/C[C@@H](C)[C@H]1CC[C@@]2(C)[C@@H]3C=C[C@@]45OC[C@]3(CC[C@]12C)[C@@H]4CC[C@H](O[C@@H]1O[C@H](CO)[C@@H](O)[C@H](O)[C@H]1O)C5(C)C | – |
| – | 10.1 | C[C@H](C/C=C/C(C)(C)O)[C@H]1CC[C@@]2(C)[C@@H]3C=C[C@@]45OC[C@]3(CC[C@]12C)[C@@H]4CC[C@H](O[C@@H]1O[C@H](CO)[C@@H](O)[C@H](O)[C@H]1O)C5(C)C | – |
| – | 15.8 | CO[C@H]1C=C2[C@@H](CC[C@H](O[C@@H]3O[C@H](CO)[C@@H](O)[C@@H](O)[C@H]3O)C2(C)C)[C@]2(C)CC[C@]3(C)[C@@H]([C@H](C)C/C=C/C(C)(C)O)CC[C@@]3(C)[C@H]12 | – |
| – | – | O=C(/C=C/c1ccc(O)c(O)c1)O[C@@H]1C[C@](O)(C(=O)O)C[C@@H](O)[C@H]1O [CHLOROGENIC ACID] | Activity [4]: 74.04%; ED50 [4]: 26 mg/kg |
| 208 | – | O=c1cc(-c2ccc(O)c(O)c2)c2c(O)cc(O)cc2o1 | inhibition [5]: Dose-dependent effect |
| – | 10.9 | CO[C@@H]1O[C@]23C=C[C@@H]4[C@@]1(CC[C@]1(C)[C@@H]([C@H](C)C/C=C/C(C)(C)O)CC[C@@]41C)[C@@H]2CC[C@H](O[C@@H]1O[C@H](CO)[C@@H](O)[C@H](O)[C@H]1O)C3(C)C | – |
| – | – | COc1cc(/C=C/C(=O)OC[C@H]2O[C@@H](O[C@H]3[C@H](Oc4cc5c(O[C@@H]6O[C@H](CO)[C@@H](O)[C@H](O)[C@H]6O)cc(O)cc5[o+]c4-c4ccc(O)c(OC)c4)O[C@H](COC(=O)/C=C/c4ccc(O)c(O)c4)[C@@H](O)[C@@H]3O)[C@H](O)[C@@H](O)[C@@H]2O)ccc1O | IC50 [6]: 200 µM |
| – | – | COc1cc(O[C@@H]2O[C@H](CO[C@@H]3OC[C@](O)(CO)[C@H]3O)[C@@H](O)[C@H](O)[C@H]2O)c2c(-c3ccc(O)c(O)c3)cc(=O)oc2c1 | Activity [4]: 68.85%; ED50 [4]: 15 mg/kg |
| – | 18.6 | CC(C)=C[C@H](O[C@@H]1O[C@H](CO)[C@@H](O)[C@@H](O)[C@H]1O)[C@@H](O)[C@@H](C)[C@H]1CC[C@@]2(C)[C@@H]3C=C[C@@]45OC[C@]3(CC[C@]12C)[C@@H]4CC[C@H](O[C@@H]1O[C@H](CO)[C@@H](O)[C@H](O)[C@H]1O)C5(C)C | – |
| 62 | – | COc1cc(O)c2c(-c3ccc(O)c(O)c3)cc(=O)oc2c1 | inhibition [5]: Dose-dependent effect |
| – | – | COc1cc(/C=C/C(=O)OC[C@H]2O[C@@H](O[C@H]3[C@H](Oc4cc5c(O[C@@H]6O[C@H](CO)[C@@H](O)[C@H](O)[C@H]6O)cc(O)cc5[o+]c4-c4ccc(O)c(O)c4)O[C@H](COC(=O)/C=C/c4ccc(O)c(O)c4)[C@@H](O)[C@@H]3O)[C@H](O)[C@@H](O)[C@@H]2O)ccc1O | IC50 [6]: 193 µM |
| – | 12.5 | C[C@H](C/C=C/C(C)(C)O)[C@H]1CC[C@@]2(C)[C@@H]3C=C[C@@]45OC[C@]3(CC[C@]12C)[C@@H]4CC[C@H](O[C@@H]1O[C@H](CO)[C@@H](O)[C@@H](O)[C@H]1O)C5(C)C | – |
| 420 | – | CC1(C)C=Cc2c(ccc(C(=O)CO)c2O)O1 | – |
| 280 | – | C=C1C(=O)O[C@@H]2C[C@@H](C)/C=C\C(=O)[C@](C)(O)[C@H](OC(C)=O)[C@@H](OC(=O)/C(C)=C/C)[C@@H]12 [CALEIN C] | – |
| – | 13.6 | COC(C)(C)/C=C/C[C@@H](C)[C@H]1CC[C@@]2(C)[C@@H]3CC[C@@]45OC(=O)[C@]3(CC[C@]12C)[C@@H]4CC[C@H](O[C@@H]1O[C@H](CO)[C@@H](O)[C@@H](O)[C@H]1O)C5(C)C | – |
| – | 13 | C[C@H](CC(O)C(O)C(C)(C)O)[C@H]1CC[C@@]2(C)[C@@H]3CC=C4[C@@H](CC[C@H](O[C@@H]5O[C@H](CO[C@@H]6O[C@H](CO)[C@@H](O)[C@H](O)[C@H]6O)[C@@H](O)[C@H](O)[C@H]5O)C4(C)C)[C@]3(C)CC[C@]12C (stereo partly specified) | – |
| – | 21.7 | C[C@H]([C@H](O)[C@@H](O)[C@@H](O)C(C)(C)O)[C@H]1CC[C@@]2(C)[C@@H]3CC=C4[C@@H](CC[C@H](O[C@@H]5O[C@H](CO[C@@H]6O[C@H](CO)[C@@H](O)[C@H](O)[C@H]6O)[C@@H](O)[C@H](O)[C@H]5O)C4(C)C)[C@]3(C)CC[C@]12C | – |

| Structure (SMILES) | IC50 [1] [µM] | inhibition [3] [%] | also measured |
| --- | --- | --- | --- |
| COc1cc(-c2oc3cc(O)cc(O)c3c(=O)c2O)ccc1O [ISORHAMNETIN] | 160 | – | – |
| CCCC=C1OC(=O)c2ccccc21 [(E)-BUTYLIDENEPHTHALIDE] | 2350 | – | Ki [7]: 4.86 µM; inhibition [5]: Dose-dependent effect |
